Test results: patent US20230113847A1, “[…] IMMUNE RESPONSE WITH CUPROUS COMPLEXES” (C LAB PHARMA INTERNATIONAL, S.A., priority 2020, published 2023)

How the values were obtained:
[1] = stated in description, relevance to route of administration
neuromuscular pain = settings: Day 28 in comparison to Day 0; subjects with neuromuscular pain; twice daily administration; placebo group showed upward trend
Excerpt: (§1) Dosing Regimen: Each participant was randomly assigned an identifier code and placed in either the Cunermuspir or placebo treatment groups at a 1:1 ratio. Participants were given 2 capsules on Day 0 and instructed to take the contents sublingually with a small meal. Starting on Day 1, participants were instructed to take one capsule orally in the morning with breakfast, and one capsule orally between lunch and dinner, with food, for a total of 2 capsules daily over the course of the study. Participants were instructed to take all capsules with adequate, but not excessive, amounts of liquid.

[2] = tested on: Neutrophil to Lymphocyte Ratio; settings: Day 28, twice daily administration
Description: (§2) Ethics: This study was reviewed by the Natural Health Products Directorate (NHPD), Health Canada and a research ethics board. This study was conducted in accordance with the principles established in the Declaration of Helsinki and its subsequent amendments. Informed consent was obtained from each subject at the screening visit prior to any study related activities. The clinical trial was conducted at KGK Synergize Inc. (London, ON, Canada).
(§3) Sample Collection: As depicted in FIG. 1, blood was collected from participants on the initial screening (Day −1), the first day of administering the treatment composition (Day 0), and on Day 28. Collected blood was analyzed to determine the complete blood count (CBC), electrolyte composition, and liver enzymes composition according to standardized procedures at LifeLabs (London, ON, Canada).
as §1

Neutrophils = settings: Day 28, twice daily administration; otherwise healthy subjects with chronic pain
Description: as §2, §3, §1

Lymphocytes = settings: Day 28, twice daily administration; otherwise healthy subjects with chronic pain
Description: as §2, §3, §1

Structure (SMILES) | pH of the complex [1] | SQIR scores in Symptom, Impact and Function Domains (neuromuscular pain) | neutrophil to lymphocyte ratio relative to the placebo group [2] | neutrophil numbers relative to the placebo group (Neutrophils) | lymphocyte numbers relative to the placebo group (Lymphocytes)
NCC(=O)[O-].[Cu+] [Copper (I) glycinate, cuprous glycinate] | more neutral pH | – | – | – | –
O=C(O)c1cccnc1.[Cu+] [Cu(I)NA2, cuprous nicotinic acid] | acidic pH | decreased scores | significant decrease | significant decrease | significant increase
